Laboratory results from patent US4568490A, “Aminopropylaminobleomycin derivatives and process for preparation thereof” (Zaidan Hojin Biseibutsu Kagaku Kenkyu Kai, priority 1981, dated 1986).

Experiments:
Hela S3 cells [1] = assay: Growth inhibitory activity against Hela S3 cells; format: cell-based; details: Cu-free form; Hela S3, 3 days incubation with compound
Description: The percentage growth inhibition was calculated using the equation: […] wherein A is the ultimate number of cells on the third day from the addition of a test sample, B is the ultimate number of cells in the control (without the addition of test sample), and C is the number of cells on the day of addition of the test sample.

Bacillus subtilis = assay: Antimicrobial activity, agar plate-cylinder method; format: cell-based; details: Cu-free form; bleomycin A2 (Cu-free form) standard assumed 1,000 mcg/mg
Description: (1) Antimicrobial activity against Mycobacterium smegmatis ATCC 697 and Bacillus subtilis.
(§1) The activity was assayed against the above test microorganisms by the method of agar plate-cylinder, assuming the potency of bleomycin A2 (Cu-free form), used as standard, to be 1,000 mcg/mg.

[2] = system: CDF1 /SLC strain male mice; assay: Acute toxicity, LD50 on 10 consecutive days; format: in vivo; details: subcutaneous, Behrens-Karber method
Description: LD50 was assayed by administering several representative compounds of this invention for 10 consecutive days.
CDF1 /SLC strain male mice (each 6 weeks old, 7 members per group) were subcutaneously administered with various compounds of this invention, the dose being different with each compound. LD50 (daily dose) was estimated from the mortality during the administration period by the Behrens-Karber method.

[3] = system: Lymphocytic leukemia P-388; assay: In vivo antitumor activity, murine lymphocytic leukemia P-388; details: BDF1-SLC mice, i.p. transplant, once daily for 9 days, 30 days observation; T/C more than 130 effective
Description: The following data with respect to the testing of a group of the presently claimed substances in vivo according to a standard test method involving murine lymphocytic leukemia P-388 is presented to lend further assurance as to the utility of the compounds as inhibitors of mammalian tumors.
Lymphocytic leukemia P-388 cells (1×10^5 /0.2 ml) were transplanted intraperitoneally into male BDF1 -SLC mice (5 mice/group). Each of the compounds of this invention was diluted with physiological saline to various concentrations. Each dilution was administered at a dose of 0.1 ml/10 g of body weight once daily for 9 days, starting on the day after the day of the transplantation. The mice of the control group were administered physiological saline.
The average number of days that the group receiving the compound of this invention survived was calculated. The figure obtained was divided by the average number of survival days for the control group, and was multiplied by 100 (T/C (%)).
T/C value more than 130 was considered to be effective.

[4] = system: Mycobacterium smegmatis ATCC 607; assay: Antimicrobial activity, agar plate-cylinder method; format: cell-based; details: Cu-free form; bleomycin A2 (Cu-free form) standard assumed 1,000 mcg/mg
Description: as §1

ICR strain mice = assay: Pulmonary toxicity (pulmonary fibrosis) in mice, intraperitoneal injection; format: in vivo; details: 5 mg/kg i.p. once a day for 10 days; for Grade of pulmonary fibrosis, % / Incidence of pulmonary fibrosis, % / Incidence: number of mice suffering from pulmonary fibrosis / Grade: total score of pulmonary fibrosis/total number of test animal: autopsy after 5 weeks; for Incidence: number of mice suffering from pulmonary fibrosis: affected/total mice; for Grade: total score of pulmonary fibrosis/total number of test animal: score 0-6 points; for Grade of pulmonary fibrosis, Ratio / Incidence of pulmonary fibrosis, Ratio: reference of the ratio not stated
How it was run: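 Male ICR mice, 15 weeks old, 9 per group, received 5 mg/kg intraperitoneally once daily for 10 days. They were autopsied after 5 weeks' observation for pulmonary fibrosis incidence and grade: 1, alveolar exudate/septal fibrosis-like change; 2, fibrosis in several areas; 4, scattered fibrosis; 6, fibrosis over >2/3 of area.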

Hela S3 cells [5] = details: background statement; cited from earlier work

Question: For `CC[N+](CC)(CCCNC(=O)c1csc(-c2csc(CCNC(=O)C(NC(=O)C(C)C(O)C(C)NC(=O)C(NC(=O)c3nc(C(CC(N)=O)NCC(N)C(N)=O)nc(N)c3C)C(OC3OC(CO)C(O)C(O)C3OC3OC(CO)C(O)C(OC(N)=O)C3O)c3cnc[nH]3)C(C)O)n2)n1)CCCN(Cc1ccccc1)Cc1ccccc1` (stereo not drawn) [Compound No. 37, 3-[N,N-diethyl-N-(3'-dibenzylamino)propyl]aminopropylaminobleomycin], which “50% growth inhibition concentration (ID50) of Cu--free compound against cultured Hela cell” value (Hela S3 cells [1]) is on record?
Answer: The value was 0.70 µg/mL.

Question: What about the “Antimicrobial potency of Cu--free compound, against Bacillus subtilis” value (Bacillus subtilis) of the same compound?
Answer: Its value is 1047 mcg potency per mg.

Question: And the “LD50 (daily dose)” value [2]?
Answer: The value was 50.0 mg/kg/day.

Question: And the “Max. T/C on Mouse Lymphocytic Leukemia P 388” value [3]?
Answer: Its value is 168%.

Question: What about the “Antimicrobial potency of Cu--free compound, against Mycobacterium smegmatis ATCC 607” value [4] of the same compound?
Answer: The value was 10680 mcg potency per mg.

Question: Which results are given for `Cc1c(N)nc(C(CC(N)=O)NCC(N)C(N)=O)nc1C(=O)NC(C(=O)NC(C)C(O)C(C)C(=O)NC(C(=O)NCCc1nc(-c2nc(C(=O)NCCCN(C)CCCNCC3CCCCCCCCCC3)cs2)cs1)C(C)O)C(OC1OC(CO)C(O)C(O)C1OC1OC(CO)C(O)C(OC(N)=O)C1O)c1cnc[nH]1` (stereo not drawn) [Compound No. 32, 3-{N--Methyl-N--[3'-(cycloundecanylmethylamino)propyl]amino}propylaminoBLM]?
Answer: Grade of pulmonary fibrosis, % (ICR strain mice): 0%; Incidence of pulmonary fibrosis, % (ICR strain mice): 0%; Incidence: number of mice suffering from pulmonary fibrosis (ICR strain mice): 0/9; Grade: total score of pulmonary fibrosis/total number of test animal (ICR strain mice): 0/27; Grade of pulmonary fibrosis, Ratio (ICR strain mice): 0.00; Incidence of pulmonary fibrosis, Ratio (ICR strain mice): 0.00; 50% growth inhibition concentration (ID50) of Cu--free compound against cultured Hela cell (Hela S3 cells [1]): 0.58 µg/mL; Antimicrobial potency of Cu--free compound, against Bacillus subtilis (Bacillus subtilis): 8146 mcg potency per mg; LD50 (daily dose) [2]: 17.5 mg/kg/day; Max. T/C on Mouse Lymphocytic Leukemia P 388 [3]: 166%; Antimicrobial potency of Cu--free compound, against Mycobacterium smegmatis ATCC 607 [4]: 28308 mcg potency per mg

Question: Which “Grade of pulmonary fibrosis, %” value (ICR strain mice) does the source give for `Cc1c(N)nc(C(CC(N)=O)NCC(N)C(N)=O)nc1C(=O)NC(C(=O)NC(C)C(O)C(C)C(=O)NC(C(=O)NCCc1nc(-c2nc(C(=O)NCCCN3CCN(CCCN(Cc4ccccc4)Cc4ccccc4)CC3)cs2)cs1)C(C)O)C(OC1OC(CO)C(O)C(O)C1OC1OC(CO)C(O)C(OC(N)=O)C1O)c1cnc[nH]1` (stereo not drawn) [Compound No. 43] here?
Answer: The value was 0%.

Question: And the “Incidence of pulmonary fibrosis, %” value (ICR strain mice)?
Answer: The value was 0%.

Question: What about the “Incidence: number of mice suffering from pulmonary fibrosis” value (“Incidence: number of mice suffering” below) (ICR strain mice) of the same compound?
Answer: Its value is 0/9.

Question: What about the “Grade: total score of pulmonary fibrosis/total number of test animal” value (ICR strain mice) of the same compound?
Answer: Its value is 0/27.

Question: And the “Grade of pulmonary fibrosis, Ratio” value (ICR strain mice)?
Answer: Its value is 0.00.

Question: What about the “Incidence of pulmonary fibrosis, Ratio” value (ICR strain mice) of the same compound?
Answer: Its value is 0.00.

Question: And the “50% growth inhibition concentration (ID50) of Cu--free compound against cultured Hela cell” value (Hela S3 cells [1])?
Answer: The value was 0.50 µg/mL.

Question: What about the “Antimicrobial potency of Cu--free compound, against Bacillus subtilis” value (Bacillus subtilis) of the same compound?
Answer: The value was 1230 mcg potency per mg.

Question: And the “LD50 (daily dose)” value [2]?
Answer: The value was 12.5 mg/kg/day.

Question: And the “Max. T/C on Mouse Lymphocytic Leukemia P 388” value [3]?
Answer: Its value is 182%.

Question: And the “Antimicrobial potency of Cu--free compound, against Mycobacterium smegmatis ATCC 607” value [4]?
Answer: The value was 14420 mcg potency per mg.

Question: With `Cc1c(N)nc(C(CC(N)=O)NCC(N)C(N)=O)nc1C(=O)NC(C(=O)NC(C)C(O)C(C)C(=O)NC(C(=O)NCCc1nc(-c2nc(C(=O)NCCCN(C)CCCN)cs2)cs1)C(C)O)C(OC1OC(CO)C(O)C(O)C1OC1OC(CO)C(O)C(OC(N)=O)C1O)c1cnc[nH]1` (stereo not drawn) [APMP, 3-[N-(3-aminopropyl)-N-methylamino]propylaminobleomycin, reference compound] as the compound, how does the “Grade of pulmonary fibrosis, %” value (ICR strain mice) read?
Answer: The value was 0%.

Question: And the “Incidence of pulmonary fibrosis, %” value (ICR strain mice)?
Answer: Its value is 100%.

Question: And the “Incidence: number of mice suffering” value (ICR strain mice)?
Answer: Its value is 9/9.

Question: And the “Grade: total score of pulmonary fibrosis/total number of test animal” value (ICR strain mice)?
Answer: The value was 48/27.

Question: And the “Grade of pulmonary fibrosis, Ratio” value (ICR strain mice)?
Answer: The value was 2.15.

Question: What about the “Incidence of pulmonary fibrosis, Ratio” value (ICR strain mice) of the same compound?
Answer: The value was 1.6.

Question: And the “Growth inhibition of Hela Cell (in words)” value (Hela S3 cells [5])?
Answer: The value was “strongly inhibits”.

Question: For `Cc1c(N)nc(C(CC(N)=O)NCC(N)C(N)=O)nc1C(=O)NC(C(=O)NC(C)C(O)C(C)C(=O)NC(C(=O)NCCc1nc(-c2nc(C(=O)NCCCN(C)CCCN(Cc3ccc(OCc4ccccc4)c(OCc4ccccc4)c3)Cc3ccc(OCc4ccccc4)c(OCc4ccccc4)c3)cs2)cs1)C(C)O)C(OC1OC(CO)C(O)C(O)C1OC1OC(CO)C(O)C(OC(N)=O)C1O)c1cnc[nH]1` (stereo not drawn) [Compound No. 34, 3-{N--Methyl-N--[3'-(bis(m,p-dibenzyloxybenzyl)amino)propyl]amino}propylaminoBLM], which “Grade of pulmonary fibrosis, %” value (ICR strain mice) is on record?
Answer: The value was 0%.

Question: And the “Incidence of pulmonary fibrosis, %” value (ICR strain mice)?
Answer: Its value is 0%.

Question: And the “Incidence: number of mice suffering” value (ICR strain mice)?
Answer: The value was 0/9.

Question: And the “Grade: total score of pulmonary fibrosis/total number of test animal” value (ICR strain mice)?
Answer: The value was 0/27.

Question: And the “Grade of pulmonary fibrosis, Ratio” value (ICR strain mice)?
Answer: The value was 0.00.

Question: What about the “Incidence of pulmonary fibrosis, Ratio” value (ICR strain mice) of the same compound?
Answer: Its value is 0.00.

Question: And the “50% growth inhibition concentration (ID50) of Cu--free compound against cultured Hela cell” value (Hela S3 cells [1])?
Answer: Its value is 0.38 µg/mL.

Question: And the “Antimicrobial potency of Cu--free compound, against Bacillus subtilis” value (Bacillus subtilis)?
Answer: Its value is 49 mcg potency per mg.

Question: And the “LD50 (daily dose)” value [2]?
Answer: Its value is 60.0 mg/kg/day.

Question: What about the “Max. T/C on Mouse Lymphocytic Leukemia P 388” value [3] of the same compound?
Answer: Its value is 205%.

Question: What about the “Antimicrobial potency of Cu--free compound, against Mycobacterium smegmatis ATCC 607” value [4] of the same compound?
Answer: Its value is 164 mcg potency per mg.
